Laboratory results published in patent publication US20230056205A1, “SUBSTITUTED 4,6-DIHYDROSPIRO[[1,2,3]TRIAZOLO[4,5-B]PYRIDINE-7,3'-INDOLINE]-2',5(3H)-DIONE ANALOGUES” (The Board of Regents of The University of Texas System, priority 2019, published 2023).
pEC50: −log10 of the molar value.

Legend:
DENV-1 replicon = experiment: Luciferase reporter replicon-based screening, DENV-1; type: cell-based, DENV-1 (strain WestPac); conditions: Dengue virus, DENV1, Huh-7, 48 h, read-out: EC50 DENV-1
Experimental: (§1) Luciferase Reporter Replicon-Based Screening. Huh7 cells containing a luciferase reporter replicon of DENV-1 (strain WestPac), DENV-2 (New Guinea C strain, NGC), DENV-3 (strain D3MY05-34640) and DENV-4 (strain D4MY01-22713) were used in this study. The replicon cells containing the Renilla luciferase and neomycin-resistance genes were generated using a similar strategy as described previously.^55 Briefly, Huh7 DENV-1 to -4 replicon cells were seeded at a density of 10k per well in a 96-well microplate. After incubation at 37° C. with 5% CO2 overnight, the cells were treated with 2-fold serial dilutions of compounds. Experiments were performed in duplicates. After 48 h of incubation, luciferase activities were measured using the EnduRen live-cell substrate (Promega) by following the manufacturer’s instructions. The dose-dependent curve was plotted and EC50 values were calculated using four parameter logistic regression in GraphPad software Prism 8.0.

DENV-2 replicon = experiment: Luciferase reporter replicon-based screening, DENV-2; type: cell-based, DENV-2 (New Guinea C strain, NGC); conditions: Dengue virus, DENV2, Huh-7, 48 h, read-out: EC50 DENV-2, Huh7 cells stably expressing DENV-2 replicon, 48 h
Experimental: as §1

DENV-3 replicon = experiment: Luciferase reporter replicon-based screening, DENV-3; type: cell-based, DENV-3 (strain D3MY05-34640); conditions: Dengue virus, DENV3, Huh-7, 48 h, read-out: EC50 DENV-3, Huh7 cells stably expressing DENV-3 replicon, 48 h
Experimental: as §1

DENV-4 replicon = experiment: Luciferase reporter replicon-based screening, DENV-4; type: cell-based, DENV-4 (strain D4MY01-22713); conditions: Dengue virus, DENV4, Huh-7, 48 h, read-out: EC50 DENV-4
Experimental: as §1

[1] = Cytotoxicity assay (CellTiter-Glo); type: cell-based; conditions: human, Huh7 cells stably expressing DENV-2 replicon
Experimental: Cytotoxicity Assay. Huh7 cells or Huh7 replicon cells were seeded in a 96-well plate. After incubation at 37° C. with 5% CO2 overnight, the cells were treated with 2-fold serial dilutions of compounds. Experiments were performed in duplicates. After 48 h of incubation, cell viability was measured by adding the CellTiter-Glo reagent (Promega) to each well. The cell viability in 0.45% DMSO-treatment groups was treated at 100%. The cell viability in compound-treated wells was normalized to that of DMSO-treated wells. CC50 values were calculated using four parameter logistic regression in GraphPad software Prism 8.0.

Row | Compound | pEC50 (DENV-1 replicon) | pEC50 (DENV-2 replicon) | pEC50 (DENV-3 replicon) | pEC50 (DENV-4 replicon) | CC50 at 48 h [1]
1 | C[C@@H](c1ccc(Cl)cc1)n1nnc2c1NC(=O)C[C@]21C(=O)N(CCC(C)(C)C)c2ccc(Cl)cc21 [Compound 16, (R)-5ʹ-Chloro-3-((S)-1-(4-chlorophenyl)ethyl)-1ʹ-(3,3-dimethylbutyl)-4,6-dihydrospiro[[1,2,3]triazolo[4,5-b]pyridine-7,3ʹ-indoline]-2ʹ,5(3H)-dione] | 5.96 | 6.06 | 7.09 | 5.41 | > 10 µM
2 | C[C@@H](c1ccc(Cl)cc1)n1nnc2c1NC(=O)C[C@]21C(=O)N(CC2CC2)c2ccc(Cl)cc21 [Compound 17, (R)-5'-Chloro-3-((S)-1-(4-chlorophenyl)ethyl)-1'-(cyclopropylmethyl)-4,6-dihydrospiro[[1,2,3]triazolo[4,5-b]pyridine-7,3'-indoline]-2',5(3H)-dione] | 5.51 | 6.96 | 7.77 | < 5.30 | > 10 µM
3 | C=CCN1C(=O)[C@]2(CC(=O)Nc3c2nnn3[C@@H](C)c2ccc(Cl)cc2)c2cc(Cl)ccc21 [Compound 18, (R)-1'-Allyl-5'-chloro-3-((S)-1-(4-chlorophenyl)ethyl)-4,6-dihydrospiro[[1,2,3]triazolo[4,5-b]pyridine-7,3ʹ-indoline]-2',5(3H)-dione] | 5.68 | 7.42 | 8.30 | < 5.30 | > 10 µM
4 | C#CCN1C(=O)[C@]2(CC(=O)Nc3c2nnn3[C@@H](C)c2ccc(Cl)cc2)c2cc(Cl)ccc21 [Compound 19, (R)-5ʹ-Chloro-3-((S)-1-(4-chlorophenyl)ethyl)-1ʹ-(prop-2-yn-1-yl)-4,6-dihydrospiro [[1,2,3]triazolo[4,5-b]pyridine-7,3ʹ-indoline]-2ʹ,5(3H)-dione] | < 5.30 | 7.16 | 8.52 | < 5.30 | > 10 µM
5 | CC#CCN1C(=O)[C@]2(CC(=O)Nc3c2nnn3[C@@H](C)c2ccc(Cl)cc2)c2cc(Cl)ccc21 [Compound 20, (R)-1'-(But-2-yn-1-yl)-5'-chloro-3-((S)-1-(4-chlorophenyl)ethyl)-4,6-dihydrospiro[[1,2,3]triazolo[4,5-b]pyridine-7,3'-indoline]-2',5(3H)-dione] | < 5.30 | 7.20 | 7.70 | < 5.30 | > 10 µM
6 | CC(C)N1C(=O)C[C@]2(C(=O)Nc3ccc(Cl)cc32)c2nnn([C@@H](C)c3ccc(Cl)cc3)c21 [Compound 21, (R)-5'-Chloro-3-((S)-1-(4-chlorophenyl)ethyl)-4-isopropyl-4,6-dihydrospiro[[1,2,3]triazolo[4,5-b]pyridine-7,3'-indoline]-2',5(3H)-dione] | 5.68 | 6.07 | 6.51 | 5.36 | > 10 µM
7 | CC(C)N1C(=O)[C@]2(CC(=O)N(C(C)C)c3c2nnn3[C@@H](C)c2ccc(Cl)cc2)c2cc(Cl)ccc21 [Compound 22, (R)-5'-Chloro-3-((S)-1-(4-chlorophenyl)ethyl)-1',4-diisopropyl-4,6-dihydrospiro[[1,2,3]triazolo[4,5-b]pyridine-7,3'-indoline]-2ʹ,5(3H)-dione] | 5.42 | < 5.00 | 5.82 | 5.52 | > 10 µM
8 | C[C@@H](c1ccc(Cl)cc1)n1nnc2c1N(C)C(=O)C(C)(C)[C@]21C(=O)N(C)c2ccc(Cl)cc21 [Compound 23, (S)-5'-Chloro-3-((S)-1-(4-chlorophenyl)ethyl)-1ʹ,4,6,6-tetramethyl-4,6-dihydrospiro[[1,2,3]triazolo[4,5-b]pyridine-7,3ʹ-indoline]-2ʹ,5(3H)-dione] | < 5.30 | < 5.30 | < 5.30 | < 5.30 | > 10 µM
